Tested on: 926638-142-R-J1-PDC complex spheroid viability
Experiment: Anticancer human tumor 926638-142-R-J1-PDC patient-derived endometrial carcinoma cell line growth inhibition [POLQ]
Conditions: for IC50: curve of first compound; for viability, T/C: stronger effect = lower value
Procedure, shortened: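 Complex spheroid viability model combining PDC tumour cells with endothelial (HUVEC) and MSC stromal cells. Novobiocin, ART-558 or RP6685 were tested singly and in combination with standard and investigational anticancer drugs. Each was titrated in half-log steps from near clinical Cmax, or from 10 microM where Cmax was unknown.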

[1] = second compound 0.0316 µM, first compound 0.0316 µM
[2] = second compound 0.0316 µM, first compound 0.1 µM
[3] = second compound 0.0316 µM, first compound 0.316 µM
[4] = second compound 0.0316 µM, first compound 1 µM
[5] = second compound 0.1 µM, first compound 0.0316 µM
[6] = second compound 0.1 µM, first compound 0.1 µM
[7] = second compound 0.1 µM, first compound 0.316 µM
[8] = second compound 0.1 µM, first compound 1 µM
[9] = second compound 0.316 µM, first compound 0.0316 µM
[10] = second compound 0.316 µM, first compound 0.1 µM
[11] = second compound 0.316 µM, first compound 0.316 µM
[12] = second compound 0.316 µM, first compound 1 µM
[13] = second compound 1 µM, first compound 0.0316 µM
[14] = second compound 1 µM, first compound 0.1 µM
[15] = second compound 1 µM, first compound 0.316 µM
[16] = second compound 1 µM, first compound 1 µM
[17] = second compound 3.16 µM, first compound 0.0316 µM
[18] = second compound 3.16 µM, first compound 0.1 µM
[19] = second compound 3.16 µM, first compound 0.316 µM
[20] = second compound 3.16 µM, first compound 1 µM
[21] = second compound 10 µM, first compound 0.0316 µM
[22] = second compound 10 µM, first compound 0.1 µM
[23] = second compound 10 µM, first compound 0.316 µM
[24] = second compound 10 µM, first compound 1 µM
[25] = second compound 0.0316 µM, first compound 0.00316 µM
[26] = second compound 0.0316 µM, first compound 0.01 µM
[27] = second compound 0.1 µM, first compound 0.00316 µM
[28] = second compound 0.1 µM, first compound 0.01 µM
[29] = second compound 0.316 µM, first compound 0.00316 µM
[30] = second compound 0.316 µM, first compound 0.01 µM
[31] = second compound 1 µM, first compound 0.00316 µM
[32] = second compound 1 µM, first compound 0.01 µM
[33] = second compound 3.16 µM, first compound 0.00316 µM
[34] = second compound 3.16 µM, first compound 0.01 µM
[35] = second compound 10 µM, first compound 0.00316 µM
[36] = second compound 10 µM, first compound 0.01 µM
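Note: spheroids exposed to drugs for one week before readout.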
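Throughout, for viability, T/C: percent viability relative to DMSO vehicle control wells set as 100%.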

With `CNCc1ccc(-c2[nH]c3cc(F)cc4c3c2CCNC4=O)cc1` + Nc1ccc(C#CCN(C(=O)Cc2ncc(C(F)(F)F)cc2C(F)(F)F)c2ccc(F)cc2)nn1 the IC50 (second compound 0.0316 µM) was > 10000 nM, the IC50 (second compound 0.1 µM) was > 10000 nM and the IC50 (second compound 0.316 µM) was > 10000 nM. For the same compound, the IC50 (second compound 1 µM) was > 10000 nM, the IC50 (second compound 3.16 µM) was > 10000 nM and the IC50 (second compound 10 µM) was > 10000 nM. For the same compound, the viability, T/C [1] was 94.5%, the viability, T/C [2] was 87.2% and the viability, T/C [3] was 91.2%. The viability, T/C [4] was 83.1%, the viability, T/C (second compound 0.0316 µM, first compound 3.16 µM) was 86.2% and the viability, T/C (second compound 0.0316 µM, first compound 10 µM) was 71.3%. The viability, T/C [5] was 96.7%, the viability, T/C [6] was 115% and the viability, T/C [7] was 90.7%. The viability, T/C [8] was 87.8%, the viability, T/C (second compound 0.1 µM, first compound 3.16 µM) was 101% and the viability, T/C (second compound 0.1 µM, first compound 10 µM) was 71.3%. It also gave a viability, T/C [9] of 101%, a viability, T/C [10] of 108% and a viability, T/C [11] of 95%. It also gave a viability, T/C [12] of 82.6%, a viability, T/C (second compound 0.316 µM, first compound 3.16 µM) of 115% and a viability, T/C (second compound 0.316 µM, first compound 10 µM) of 73.7%. The viability, T/C [13] was 103%, the viability, T/C [14] was 90.2% and the viability, T/C [15] was 91.2%. The viability, T/C [16] was 79.5%, the viability, T/C (second compound 1 µM, first compound 3.16 µM) was 95.3% and the viability, T/C (second compound 1 µM, first compound 10 µM) was 84.1%. The viability, T/C [17] was 102%, the viability, T/C [18] was 89.5% and the viability, T/C [19] was 101%. The viability, T/C [20] was 80.1%, the viability, T/C (second compound 3.16 µM, first compound 3.16 µM) was 93% and the viability, T/C (second compound 3.16 µM, first compound 10 µM) was 71.1%. It also gave a viability, T/C [21] of 90%, a viability, T/C [22] of 81.4% and a viability, T/C [23] of 93%. For the same compound, the viability, T/C [24] was 95.1%, the viability, T/C (second compound 10 µM, first compound 3.16 µM) was 98.7% and the viability, T/C (second compound 10 µM, first compound 10 µM) was 73.1%.
Compound `COc1cccc(OCCCN)c1-c1cc(Nc2cnc(C#N)cn2)n[nH]1` + Nc1ccc(C#CCN(C(=O)Cc2ncc(C(F)(F)F)cc2C(F)(F)F)c2ccc(F)cc2)nn1 has an IC50 (second compound 0.0316 µM) of 70.7 nM, an IC50 (second compound 0.1 µM) of 112 nM and an IC50 (second compound 0.316 µM) of 94.9 nM. For the same compound, the IC50 (second compound 1 µM) was 77.6 nM, the IC50 (second compound 3.16 µM) was 40.6 nM and the IC50 (second compound 10 µM) was 65.4 nM. It also gave a viability, T/C [25] of 115%, a viability, T/C [26] of 76.4% and a viability, T/C [1] of 56%. The viability, T/C [2] was 47.3%, the viability, T/C [3] was 49.3% and the viability, T/C [4] was 32.3%. It also gave a viability, T/C [27] of 115%, a viability, T/C [28] of 84.6% and a viability, T/C [5] of 62.7%. For the same compound, the viability, T/C [6] was 50.7%, the viability, T/C [7] was 48.4% and the viability, T/C [8] was 31.3%. The viability, T/C [29] was 111%, the viability, T/C [30] was 79.2% and the viability, T/C [9] was 60.4%. For the same compound, the viability, T/C [10] was 48.3%, the viability, T/C [11] was 48.2% and the viability, T/C [12] was 36.7%. For the same compound, the viability, T/C [31] was 121%, the viability, T/C [32] was 78.5% and the viability, T/C [13] was 60.6%. It also gave a viability, T/C [14] of 45.9%, a viability, T/C [15] of 48.5% and a viability, T/C [16] of 31.6%. The viability, T/C [33] was 89.5%, the viability, T/C [34] was 73.4% and the viability, T/C [17] was 49.5%. For the same compound, the viability, T/C [18] was 43.4%, the viability, T/C [19] was 45.2% and the viability, T/C [20] was 31.7%. For the same compound, the viability, T/C [35] was 86.6%, the viability, T/C [36] was 71.7% and the viability, T/C [21] was 50.2%. For the same compound, the viability, T/C [22] was 44.2%, the viability, T/C [23] was 51.3% and the viability, T/C [24] was 27.1%.
With `Cn1ncnc1[C@H]1c2n[nH]c(=O)c3cc(F)cc(c23)N[C@@H]1c1ccc(F)cc1` + Nc1ccc(C#CCN(C(=O)Cc2ncc(C(F)(F)F)cc2C(F)(F)F)c2ccc(F)cc2)nn1 the IC50 (second compound 0.0316 µM) was > 100 nM, the IC50 (second compound 0.1 µM) was > 100 nM and the IC50 (second compound 0.316 µM) was > 100 nM. The IC50 (second compound 1 µM) was > 100 nM, the IC50 (second compound 3.16 µM) was > 100 nM and the IC50 (second compound 10 µM) was > 100 nM. The viability, T/C (second compound 0.0316 µM, first compound 0.000316 µM) was 117%, the viability, T/C (second compound 0.0316 µM, first compound 0.001 µM) was 89.7% and the viability, T/C [25] was 99.6%. The viability, T/C [26] was 75.7%, the viability, T/C [1] was 69.8% and the viability, T/C [2] was 74.5%. For the same compound, the viability, T/C (second compound 0.1 µM, first compound 0.000316 µM) was 123%, the viability, T/C (second compound 0.1 µM, first compound 0.001 µM) was 90.1% and the viability, T/C [27] was 101%. For the same compound, the viability, T/C [28] was 78%, the viability, T/C [5] was 79.8% and the viability, T/C [6] was 68.5%. It also gave a viability, T/C (second compound 0.316 µM, first compound 0.000316 µM) of 91.9%, a viability, T/C (second compound 0.316 µM, first compound 0.001 µM) of 98.5% and a viability, T/C [29] of 83.6%. For the same compound, the viability, T/C [30] was 84%, the viability, T/C [9] was 84.9% and the viability, T/C [10] was 66.2%. For the same compound, the viability, T/C (second compound 1 µM, first compound 0.000316 µM) was 108%, the viability, T/C (second compound 1 µM, first compound 0.001 µM) was 96.7% and the viability, T/C [31] was 75.6%. It also gave a viability, T/C [32] of 83.2%, a viability, T/C [13] of 70.4% and a viability, T/C [14] of 80.5%. For the same compound, the viability, T/C (second compound 3.16 µM, first compound 0.000316 µM) was 82.3%, the viability, T/C (second compound 3.16 µM, first compound 0.001 µM) was 96.3% and the viability, T/C [33] was 92.2%. For the same compound, the viability, T/C [34] was 92.4%, the viability, T/C [17] was 82.9% and the viability, T/C [18] was 71.2%. The viability, T/C (second compound 10 µM, first compound 0.000316 µM) was 94.3%, the viability, T/C (second compound 10 µM, first compound 0.001 µM) was 99.2% and the viability, T/C [35] was 78.7%. It also gave a viability, T/C [36] of 74%, a viability, T/C [21] of 81.9% and a viability, T/C [22] of 75.7%.
